Test results taken from patent publication US20230348416A1, “GPR52 MODULATOR COMPOUNDS” (Heptares Therapeutics Limited, priority 2020, published 2023).

Tests used:
human GPR52 = biological target: T1, human GPR52 (Homo sapiens, UniProt Q9Y2T5); assay: GPR52 Agonist Functional cAMP Assay; format: cell-based; conditions: for EC50: HEKf cells infected with human GPR52 BacMam virus, HTRF cAMP, 30 min at 37° C., read-out: PEC50 average (converted); for Emax / Emax (%): maximal response normalised to DMSO (0%) and compound 7m of J. Med. Chem., 2014, 57, 5226 (100%)
T1 construct: expressed in transfected cells; host or cells: HEKf suspension cells infected with BacMam virus
T1 sequence (Q9Y2T5 whole entry): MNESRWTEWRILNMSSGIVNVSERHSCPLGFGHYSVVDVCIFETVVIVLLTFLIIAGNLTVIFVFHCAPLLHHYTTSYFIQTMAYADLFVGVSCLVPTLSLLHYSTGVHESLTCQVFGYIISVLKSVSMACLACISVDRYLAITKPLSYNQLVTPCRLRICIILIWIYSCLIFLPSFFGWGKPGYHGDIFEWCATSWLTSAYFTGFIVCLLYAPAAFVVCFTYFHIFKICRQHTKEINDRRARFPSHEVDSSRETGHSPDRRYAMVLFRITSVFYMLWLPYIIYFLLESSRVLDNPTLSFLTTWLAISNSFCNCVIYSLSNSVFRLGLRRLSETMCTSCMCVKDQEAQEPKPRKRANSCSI
Protocol: GPR52 Agonist Functional cAMP Assay
HEKf suspension cells were infected for 24 h with 0.1% v/v human GPR52 expressing BacMam virus, a modified baculovirus designed for mammalian gene expression. Following BacMam infection, cells were pelleted by centrifugation (335 g, 5 min), resuspended in cell freezing medium (Sigma) and frozen at −150° C. until required. On experiment day, 25 nL GPR52 compound dilutions, prepared in DMSO, were stamped onto proxiplates (PerkinElmer) by a LabCyte ECHO acoustic dispenser. Frozen cells were thawed and resuspended in assay stimulation buffer (Cisbio) containing 0.5 mM 3-iso-butyl-1-methylxanthine (IBMX, Sigma) to achieve a density of 2000 cells per well. 10 μl cells were added to assay plates using a Multidrop Combi Reagent Dispenser (ThermoFisher) before centrifugation (335 g, 1 min). Cells were incubated with compounds at 37° C. for 30 min prior to addition of cAMP detection reagents (HiRange cAMP kit, Cisbio) which were prepared according to the manufacturer's instructions. Plates were shaken for 1 h at room temperature before reading on a PHERAstar FS plate reader (BMG Labtech) using standard HTRF settings. HTRF ratios were obtained by dividing the acceptor emissions (665 nm) by the donor emissions (620 nm) and multiplying by 10,000.

[1] = system: caffeine-induced hyperlocomotor activity; assay: Attenuation of caffeine-induced locomotor activity in rat; format: in vivo, male Sprague-Dawley rats; conditions: PO 60 min before caffeine 15 mg/kg SC, locomotor activity over 2 h, FIG. 1
From the text: Caffeine, a non-selective adenosine receptor antagonist, is a psychostimulant which increases rodent locomotor activity principally via blockade of A2A receptors (Br. J. Pharmacol., 2000, 129, 1465). These receptors are densely expressed on the terminals of GABAergic striatopallidal neurons in the indirect pathway of the basal ganglia, in which dopamine D2 receptors are co-expressed (J. Comp. Neurol., 1998, 401, 163; J. Comp. Neurol., 2001, 431, 331). Tonic activation of A2A receptors decreases the affinity of D2 receptors to dopamine and antagonism of A2A receptors facilitates dopaminergic signalling (Curr. Pharm. Des., 2008, 14, 1468). […] Male Sprague-Dawley rats (200-250 g) were housed in groups with a 12 h light/dark cycle (lights on at 07.00), at an ambient temperature of 21±2° C. and with standard pelleted diet and water adlibitum. Testing was carried out in the light phase. On the day of the experiment, animals were habituated to the locomotor cages for a 60-minute period. Subsequently, they were dosed with vehicle or Example 2 Isomer 1 (0.1, 0.3, 1 and 3 mg/kg) by the oral route and returned to the appropriate locomotor cage. Example 2 Isomer 1 was formulated in a vehicle of 10% DMAC, 10% solutol (Kolliphor HS15) and 80% water (v/v/v). […] Locomotor activity was assessed for a 2 h period after caffeine treatment. […] SEMs were calculated from the residuals of the statistical model. […]

EC50 (human GPR52) [nM] | Emax (human GPR52) [%] | Emax (%) (human GPR52) | Compound | effect on caffeine-induced hyperlocomotor response [1]
12.6 | 101 | – | NC1CCCc2c1nnn2-c1cc(Cc2cc(F)cc(C(F)(F)F)c2)ccn1 (single isomer, unassigned) [Example 1 Isomer 1, 1-(4-(3-fluoro-5-(trifluoromethyl)benzyl)pyridin-2-yl)-4,5,6,7-tetrahydro-1H-benzo[d][1,2,3]triazol-4-amine] | –
63.1 | – | 97 | NC1CCCc2c1nnn2-c1cc(Cc2cc(F)cc(C(F)(F)F)c2)ccn1 (single isomer, unassigned) [Example 1 Isomer 2, 1-(4-(3-fluoro-5-(trifluoromethyl)benzyl)pyridin-2-yl)-4,5,6,7-tetrahydro-1H-benzo[d][1,2,3]triazol-4-amine] | –
15.8 | – | 91 | CC(=O)NC1CCCc2c1nnn2-c1cc(Cc2cc(F)cc(C(F)(F)F)c2)ccn1 (single isomer, unassigned) [Example 2 Isomer 1, N-(1-(4-(3-fluoro-5-(trifluoromethyl)benzyl)pyridin-2-yl)-4,5,6,7-tetrahydro-1H-benzo[d][1,2,3]triazol-4-yl)acetamide] | dose-dependent reduction of the caffeine-induced hyperlocomotor response, reaching statistical significance across all time points at 3 and 10 mg/kg
2510 | 78 | – | CC(=O)NC1CCCc2c1nnn2-c1cc(Cc2cc(F)cc(C(F)(F)F)c2)ccn1 (single isomer, unassigned) [Example 2 Isomer 2, N-(1-(4-(3-fluoro-5-(trifluoromethyl)benzyl)pyridin-2-yl)-4,5,6,7-tetrahydro-1H-benzo[d][1,2,3]triazol-4-yl)acetamide] | –
501 | 73 | – | CC(=O)NC1CCCc2c1nnn2-c1cc(Cc2cc(F)cc(C(F)F)c2)ccn1 (single isomer, unassigned) [Example 13 Isomer 1, N-(1-(4-(3-(difluoromethyl)-5-fluorobenzyl)pyridin-2-yl)-4,5,6,7-tetrahydro-1H-benzo[d][1,2,3]triazol-4-yl)acetamide] | –
5.01 | – | 93 | CC(=O)NC1CCCc2c1nnn2-c1cc(Cc2cc(F)cc(C(F)F)c2)ccn1 (single isomer, unassigned) [Example 13 Isomer 2, N-(1-(4-(3-(difluoromethyl)-5-fluorobenzyl)pyridin-2-yl)-4,5,6,7-tetrahydro-1H-benzo[d][1,2,3]triazol-4-yl)acetamide] | –
25.1 | 100 | – | NC1CCCc2c1nnn2-c1cc(Cc2cc(F)cc(C(F)(F)F)c2)ccn1 (stereo not drawn) [Example 1, 1-(4-(3-fluoro-5-(trifluoromethyl)benzyl)pyridin-2-yl)-4,5,6,7-tetrahydro-1H-benzo[d][1,2,3]triazol-4-amine] | –
25.1 | 96 | – | CCC(=O)NC1CCCc2c1nnn2-c1cc(Cc2cc(F)cc(C(F)(F)F)c2)ccn1 (stereo not drawn) [Example 3, N-(1-(4-(3-fluoro-5-(trifluoromethyl)benzyl)pyridin-2-yl)-4,5,6,7-tetrahydro-1H-benzo[d][1,2,3]triazol-4-yl)propionamide] | –
25.1 | 87 | – | O=C(NC1CCCc2c1nnn2-c1cc(Cc2cc(F)cc(C(F)(F)F)c2)ccn1)C(F)F (stereo not drawn) [Example 4, 2,2-difluoro-N-(1-(4-(3-fluoro-5-(trifluoromethyl)benzyl)pyridin-2-yl)-4,5,6,7-tetrahydro-1H-benzo[d][1,2,3]triazol-4-yl)acetamide] | –
126 | 89 | – | CC(=O)NC1CCCc2c1nnn2-c1cc(Oc2cc(F)cc(C(F)(F)F)c2)ccn1 (stereo not drawn) [Example 6, N-(1-(4-(3-fluoro-5-(trifluoromethyl)phenoxy)pyridin-2-yl)-4,5,6,7-tetrahydro-1H-benzo[d][1,2,3]triazol-4-yl)acetamide] | –
31.6 | 98 | – | CNC1CCCc2c1nnn2-c1cc(Cc2cc(F)cc(C(F)(F)F)c2)ccn1 (stereo not drawn) [Example 7, 1-(4-(3-fluoro-5-(trifluoromethyl)benzyl)pyridin-2-yl)-N-methyl-4,5,6,7-tetrahydro-1H-benzo[d][1,2,3]triazol-4-amine] | –
50.1 | 94 | – | COCCNC1CCCc2c1nnn2-c1cc(Cc2cc(F)cc(C(F)(F)F)c2)ccn1 (stereo not drawn) [Example 8, 1-(4-(3-fluoro-5-(trifluoromethyl)benzyl)pyridin-2-yl)-N-(2-methoxyethyl)-4,5,6,7-tetrahydro-1H-benzo[d][1,2,3]triazol-4-amine] | –
100 | 93 | – | Fc1cc(Cc2ccnc(-n3nnc4c3CCCC4NC3COC3)c2)cc(C(F)(F)F)c1 (stereo not drawn) [Example 9, 1-(4-(3-fluoro-5-(trifluoromethyl)benzyl)pyridin-2-yl)-N-(oxetan-3-yl)-4,5,6,7-tetrahydro-1H-benzo[d][1,2,3]triazol-4-amine] | –
31.6 | 94 | – | Fc1cc(Cc2ccnc(-n3nnc4c3CCCC4NC3CCOC3)c2)cc(C(F)(F)F)c1 (stereo not drawn) [Example 10, 1-(4-(3-fluoro-5-(trifluoromethyl)benzyl)pyridin-2-yl)-N-(tetrahydrofuran-3-yl)-4,5,6,7-tetrahydro-1H-benzo[d][1,2,3]triazol-4-amine] | –
200 | 91 | – | CC(=O)NC1CCCc2c1nnn2-c1cc(Cc2cccc(C(F)(F)F)c2)ccn1 (stereo not drawn) [Example 11, N-(1-(4-(3-(trifluoromethyl)benzyl)pyridin-2-yl)-4,5,6,7-tetrahydro-1H-benzo[d][1,2,3]triazol-4-yl)acetamide] | –
31.6 | 87 | – | CC(=O)NC1CCCc2c1nnn2-c1cc(Cc2cc(F)cc(OC(F)F)c2)ccn1 (stereo not drawn) [Example 12, N-(1-(4-(3-(difluoromethoxy)-5-fluorobenzyl)pyridin-2-yl)-4,5,6,7-tetrahydro-1H-benzo[d][1,2,3]triazol-4-yl)acetamide] | –
12.6 | 93 | – | CC(=O)NC1CCCc2c1nnn2-c1cc(Cc2cc(F)cc(C(F)F)c2)ccn1 (stereo not drawn) [Example 13, N-(1-(4-(3-(difluoromethyl)-5-fluorobenzyl)pyridin-2-yl)-4,5,6,7-tetrahydro-1H-benzo[d][1,2,3]triazol-4-yl)acetamide] | –
50.1 | 90 | – | CC(=O)NC1CCCc2c1nnn2-c1cc(Cc2cc(F)cc(CF)c2)ccn1 (stereo not drawn) [Example 14, N-(1-(4-(3-fluoro-5-(fluoromethyl)benzyl)pyridin-2-yl)-4,5,6,7-tetrahydro-1H-benzo[d][1,2,3]triazol-4-yl)acetamide] | –

Compound | EC50 (human GPR52) [nM] | Emax (human GPR52) [%] | Emax (%) (human GPR52) | effect on caffeine-induced hyperlocomotor response [1]
O=C(CF)NC1CCCc2c1nnn2-c1cc(Cc2cc(F)cc(C(F)(F)F)c2)ccn1 (stereo not drawn) [Example 5, 2-fluoro-N-[1-(4-{[3-fluoro-5-(trifluoromethyl)phenyl]methyl}pyridin-2-yl)-4,5,6,7-tetrahydro-1H-benzotriazol-4-yl]acetamide] | 39.8 | 94 | – | –
